Measured values: PMC10149936, “Cofilin activation in pancreatic acinar cells plays a pivotal convergent role for mediating CCK-stimulated enzyme secretion and growth” (Frontiers in Physiology, 2023)

Legend:
[1] = system: cofilin-1 in epithelial cells; settings: micromolar concentrations, ref Zhang et al., 2018; cited from earlier work
Method: (Figures 11, 12) CCK-8 stimulates pancreatic growth in addition to being a physiological regulator of pancreatic enzyme secretion ([Jensen, 1994]; [Dufresne et al., 2006]) The activation of p44/42 MAPK by CCK-8 is an important signaling step in mediating its growth effects ([Dufresne et al., 2006]). Therefore, to study the possible role of cofilin in the activation of p44/42 MAPK in pancreatic acini, we examined the effect on cofilin activation of preincubation with two cofilin inhibitors (Cytochalasin D, Paclitaxel). (Figure 11) ([Shoji et al., 2012]; [Zhang et al., 2018]). The concentrations ...

[2] = system: actin-cofilin interaction in fibroblasts; settings: ref Shoji et al., 2012; cited from earlier work
[3] = system: cofilin / PP1 association; experiment: co-immunoprecipitation of cofilin with PP1 in pancreatic acini; assay type: cell-based, rat; settings: CCK-8 100 nM, 3 min
Method: For co-immunoprecipitation, 600 μg of protein was incubated with 15 μL of the anti-cofilin antibody (Santa Cruz Biotechnology, Inc. Dallas, TX) and 25 μL of protein A/G agarose beads (Thermo-Fisher Scientific. Waltham, MA) overnight at 4°C under agitation. Samples were washed three times with lysis buffer, re-suspended in 12.5 μL of Sample Buffer, Laemlii 2x concentrate and boiled for 5 min before western blotting.
FIGURE 6 Effect of CCK-8 (100 nM) to alter co-immunoprecipitation of cofilin with total PP2A (A) or PP1 (B). Isolated pancreatic acini were incubated in the absence or presence of CCK-8 (100 nM) for 3 min and then lysed. Equal amounts of protein were co-immunoprecipitated with an anti-cofilin (Santa Cruz, SC-376476) and then subjected to Western blots using anti-PP2A and anti-PP1. Bands were visualized using chemiluminescence and quantified by densitometry. Top: Results of a representative blot of four independent experiments are shown. Bottom: Means ± S.E. of at least 4 independent experiments. Results are expressed as % of basal stimulation of the control group. N.S., No significant. […] Lysates were analyzed using cofilin (pS3), Total cofilin, PP2A (pY307), Total PP2A, PP1(pT320), Total PP1 and tubulin. […]

## CC(=O)O[C@H]1C(=O)[C@@]2(C)[C@H]([C@H](OC(=O)c3ccccc3)[C@]3(O)C[C@H](OC(=O)[C@H](O)[C@@H](NC(=O)c4ccccc4)c4ccccc4)C(C)=C1C3(C)C)[C@]1(OC(C)=O)CO[C@@H]1C[C@@H]2O [Paclitaxel]
[1]
  effect on cofilin-1 expression levels: significantly suppressed cofilin-1 expression levels

## C=C1[C@@H](C)[C@H]2[C@H](Cc3ccccc3)NC(=O)[C@]23[C@H](OC(C)=O)/C=C/[C@@](C)(O)C(=O)[C@@H](C)C/C=C/[C@H]3[C@@H]1O [Cytochalasin D]
[2]
  effect on interaction between actin and cofilin: inhibits the interaction between actin and cofilin

## COOH-terminal octapeptide of cholecystokinin [CCK-8]
[3]
  effect on PP1 co-immunoprecipitation with cofilin: had no effect
